Measured values published in patent publication US20230087994A1, “TARGETED BIFUNCTIONAL DEGRADERS” (YALE UNIVERSITY, priority 2019, published 2023).

Target: T1, human MIF (Homo sapiens, UniProt P14174)
T1 sequence (P14174 2-115 limits assumed): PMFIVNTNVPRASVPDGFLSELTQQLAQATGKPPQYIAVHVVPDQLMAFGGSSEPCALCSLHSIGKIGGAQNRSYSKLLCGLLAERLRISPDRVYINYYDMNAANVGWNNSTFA
Assay: Depletion of injected recombinant human MIF from serum in mice
Type: in vivo
Parameters: injected into mice
Conditions: control molecules; FIG. 136
Description: In vivo human MIF depletion experiments were undertaken to determine whether MIF-GN3 can mediate the depletion of injected recombinant human MIF from serum in mice. Mice were injected with five μg of the human MIF protein. In this experiment, one group of mice was also injected with a single 10 mpk dose of MIF-GN3 along with human MIF protein. It was observed that after four hours, the average level of human MIF in serum in the PBS-treated mice was 1.76 ng/mL (FIG. 134). In mice treated with 10 mpk MIF-GN3, however, the concentration of human MIF in serum was 0.68 ng/mL. One day after the initial injection, human MIF levels had reached background levels for both conditions. […] It was hypothesized that, due to the short half-life of human MIF in serum, investigating human MIF levels at earlier time points may be more informative.
Next, an experiment was performed to determine whether MIF-GN3 could enhance MIF clearance at time points earlier than four hours. Mice were coinjected with recombinant human MIF and 10 mpk MIF-GN3 via either i.p. or i.v. routes. For the PBS control arms, human MIF was injected with PBS. It was observed that in the absence of MIF-GN3, there was a spike in huMIF levels in circulation after 30 minutes (FIG. 135). In the presence of MIF-GN3, however, levels of MIF protein remained low at 30 minutes and no spike in its concentration was observed. By two hours, the levels of human MIF in circulation decreased to background levels. […] In a further experiment, whether an inhibitor of the MIF protein (3w) is able to mediate the protein's depletion from serum was determined. A bifunctional molecule that mediates the depletion of α-DNP antibody from serum was also assayed as a negative control. Neither of these molecules was expected to mediate the formation of a ternary complex between human MIF protein and ASGPR.
In order to confirm that mice injected with one or ten mpk MIF-GN3 had received the injection, and that the observed stability of MIF concentrations in MIF-GN3 treated mice was not the result of injection error, 200 μg of α-DNP antibody was coinjected with the MIF protein in this experiment. […] An investigation of the ability of MIF-GN3 to mediate the depletion of endogenous mouse MIF in vivo was next undertaken. Mice were treated with either PBS or 10 mpk of MIF-GN3. […] One possible explanation for this finding is that MIF protein may be synthesized rapidly, and any increase in degradation mediated by MIF-GN3 may not be of a large enough magnitude to impact the protein's level in serum.

CC(=O)NC1C(OCCOCCOCCNC(=O)CCOCC(COCCC(=O)NCCOCCOCCOC2OC(CO)C(O)C(O)C2NC(C)=O)(COCCC(=O)NCCOCCOCCOC2OC(CO)C(O)C(O)C2NC(C)=O)NC(=O)CNC(=O)COCCOCCOCCNc2ccc([N+](=O)[O-])cc2[N+](=O)[O-])OC(CO)C(O)C1O (stereo not shown) [DNP-GN3]
human MIF concentration in serum compared to the PBS control: no significant decreases
